Results reported in patent US6964975B2, “Isoxazole and thiazole compounds and use thereof as medicine” (Kirin Beer Kabushiki Kaisha, priority 2000, dated 2005).
pIC50: −log10 of the molar value.

Biological target: T1, human EDG-2 (Homo sapiens, UniProt Q92633)
T1 construct: cDNA of the cloned human EDG-2 was introduced into pEFneo, which is an animal expression vector; expressed in transfected cells; host or cells: HepG2
Assay: Inhibitory activity on LPA-induced elevation of intracellular Ca2+ level
Type: cell-based
Conditions: 50% inhibition of elevation of intracellular Ca2+ level by LPA, human EDG-2/HepG2 cells, fura-2
Description: The human EDG-2 expression plasmid was introduced into HepG2 cells by electroporation. After the introduction, culturing was continued while exchanging selective media every 3 to 4 days, thereby obtaining an expressed colony. Regarding these cells, Ca-influx and cell-proliferation by LPA, level of [^3H] LPA binding and the like were inspected to select a cell line which highly expresses human EDG-2 (human EDG-2/HepG2).
Human EDG-2/HepG2 cells were washed and then suspended in 0.1% BSA (bovine serum albumin)-containing HEPES buffer. A fluorescent indicator, fura-2/AM (Wako Pure Chemical Industries, Ltd.), was added, and the mixture was shaken at room temperature for 45 minutes so that the indicator is included in the cell. Cells were washed again and then suspended in 0.1% BSA-containing HEPES buffer, and intracellular Ca^2+ level was assayed using FDSS2000 (Hamamatsu Photonics). […] Each test compound was added to the cell suspension followed by the addition of LPA, thereby examining the inhibitory activity of the test compound on the function of LPA for elevating the intracellular Ca level. […] The lower the IC50 value, the higher the antagonistic activity on the LPA receptor.

T1 sequence (Q92633 whole entry): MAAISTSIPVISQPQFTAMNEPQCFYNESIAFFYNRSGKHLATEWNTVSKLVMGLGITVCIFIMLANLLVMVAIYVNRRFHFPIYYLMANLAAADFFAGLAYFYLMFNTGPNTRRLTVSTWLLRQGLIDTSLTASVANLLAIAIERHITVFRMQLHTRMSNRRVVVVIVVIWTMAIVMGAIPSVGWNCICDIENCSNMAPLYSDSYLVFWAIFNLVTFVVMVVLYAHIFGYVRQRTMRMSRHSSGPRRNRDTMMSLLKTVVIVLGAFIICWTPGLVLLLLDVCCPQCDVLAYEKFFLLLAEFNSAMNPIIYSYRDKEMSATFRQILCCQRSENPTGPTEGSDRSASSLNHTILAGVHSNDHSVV

SMILES	pIC50
Cc1ccc(-c2onc(C)c2NC(=O)OC(C)c2ccccc2Cl)cc1 (stereo not drawn) [Compound 38, 1-(2-Chlorophenyl)ethyl N-[3-methyl-5-(4-methylphenyl)-4-isoxazolyl]carbamate]	5.00
Cc1onc(-c2ccc(F)cc2)c1NC(=O)OC(C)c1ccccc1Cl (stereo not drawn) [Compound 16, 1-(2-Chlorophenyl)ethyl N-[3-(4-fluorophenyl)-5-methyl-4-isoxazolyl]carbamate]	5.00 to 5.52
Cc1noc(-c2ccc(C#N)cc2)c1NC(=O)OC(c1ccccc1)C(F)(F)F (stereo not drawn) [Compound 86, 2,2,2-Trifluoro-1-phenylethyl N-[5-(4-cyanophenyl)-3-methyl-4-isoxazolyl]carbamate]	5.52 to 6.00
Cc1noc(-c2cccc(OC(F)(F)F)c2)c1NC(=O)OC(C)c1ccccc1Cl (stereo not drawn) [Compound 53, 1-(2-Chlorophenyl)ethyl N-[3-methyl-5-[3-(trifluoromethoxy)phenyl]-4-isoxazolyl]carbamate]	4.52
Cc1noc(-c2ccccc2F)c1NC(=O)OC(C)c1ccccc1 (stereo not drawn) [Compound 42, 1-Phenylethyl N-[5-(2-fluorophenyl)-3-methyl-4-isoxazolyl]carbamate]	5.00
Cc1onc(-c2ccccc2)c1NC(=O)OCCC(C)C [Compound 100, Isopentyl N-(5-methyl-3-phenyl-4-isoxazolyl)carbamate]	4.00 to 4.52
C=CCCCOC(=O)Nc1c(-c2ccccc2)noc1C [Compound 102, 4-Pentenyl N-(5-methyl-3-phenyl-4-isoxazolyl)carbamate]	4.00 to 4.52
Cc1noc(-c2ccoc2)c1NC(=O)OC(C)c1ccccc1Cl (stereo not drawn) [Compound 68, 1-(2-Chlorophenyl)ethyl N-[5-(3-furyl)-3-methyl-4-isoxazolyl]carbamate]	5.00 to 5.52
Cc1noc(-c2cccc(F)c2)c1NC(=O)OC(C)c1ccccc1Cl (stereo not drawn) [Compound 30, 1-(2-Chlorophenyl)ethyl N-[5-(3-fluorophenyl)-3-methyl-4-isoxazolyl]carbamate]	5.00 to 5.52
Cc1noc(-c2cccc(CSCCO)c2)c1NC(=O)OC(C)c1ccccc1Cl (stereo not drawn) [Compound 131, 1-(2-Chlorophenyl)ethyl N-[5-(3-{[(2-hydroxyethyl)sulfanyl]methyl}phenyl)-3-methyl-4-isoxazolyl]carbamate]	5.52
Cc1onc(-c2ccccc2)c1NC(=O)OC1CCc2ccccc21 (stereo not drawn) [Compound 97, 2,3-Dihydro-1H-1-indenyl N-(5-methyl-3-phenyl-4-isoxazolyl)carbamate]	4.00 to 4.52
Cc1onc(-c2cccc(F)c2)c1NC(=O)OC(C)c1ccccc1Cl (stereo not drawn) [Compound 21, 1-(2-Chlorophenyl)ethyl N-[3-(3-fluorophenyl)-5-methyl-4-isoxazolyl]carbamate]	5.52
Cc1noc(-c2ccccc2)c1NC(=O)OC(C)c1ccccc1Cl (stereo not drawn) [Compound 3, 1-(2-Chlorophenyl)ethyl N-(3-methyl-5-phenyl-4-isoxazolyl)carbamate]	5.52
Cc1onc(-c2ccccc2)c1NC(=O)O[C@H](C)c1ccccc1Br [Compound 22, (1R)-1-(2-Bromophenyl)ethyl N-(5-methyl-3-phenyl-4-isoxazolyl)carbamate]	5.00 to 5.52
Cc1ccccc1CCOC(=O)Nc1c(-c2ccccc2)noc1C [Compound 95, 2-Methylphenethyl N-(5-methyl-3-phenyl-4-isoxazolyl)carbamate]	4.00 to 4.52
Cc1noc(-c2cccs2)c1NC(=O)OC(C)c1ccccc1Cl (stereo not drawn) [Compound 57, 1-(2-Chlorophenyl)ethyl N-[3-methyl-5-(2-thienyl)-4-isoxazolyl]carbamate]	5.52
Cc1noc(-c2ccccc2Br)c1NC(=O)OC(C)c1ccccc1Cl (stereo not drawn) [Compound 51, 1-(2-Chlorophenyl)ethyl N-[5-(2-bromophenyl)-3-methyl-4-isoxazolyl]carbamate]	4.52 to 5.00
Cc1onc(-c2ccccc2)c1NC(=O)OC(C)c1ccccc1Br (stereo not drawn) [Compound 23, 1-(2-Bromophenyl)ethyl N-(5-methyl-3-phenyl-4-isoxazolyl)carbamate]	5.00
